In PMC11494662, “Insight into the Course of the Ferrier Rearrangement Used to Obtain Untypical Diosgenyl Saponins” (The Journal of Organic Chemistry, 2024):
pIC50: −log10 of the molar value. ≈ marks a conversion by molar mass, not a printed value.

Legend:
[1] = test system: prostate cancer cells (PC3 line); experiment: MTT cytotoxicity assay, PC3; assay type: cell-based, human; details: for pIC50: Homo sapiens, PC-3, PC3 cells, 48 h treatment, MTT; for SI PC3 (selectivity index): ratio of IC50 for normal cell line (HaCaT) to IC50 for PC3, 48 h
Description: (§1) The MTT assay was performed to specify the cytotoxicity of 7–12 and 13–18 against prostate cancer cells (PC3 line), breast cancer cells (MCF7 line), and human keratinocytes (HaCaT line). The mentioned cell lines were assayed by exposing them for 48 h to a medium containing the studied compounds over a wide range of concentrations. The IC50 values (dose of the compound which caused a 50% reduction of cell viability) and the selectivity indexes (SI), which show the ratio of IC50 for normal cell line to IC50 for cancer cell line, are shown in Table S2. An MTT assay was performed to specify the cytotoxicity of the studied compounds against breast cancer cells (MCF-7 line, ATCC), prostate cancer cells (PC3 line, ATCC) and human keratinocytes (HaCaT line, CLS). The MCF-7 cell line was cultured in an RPMI 1640 medium (Gibco, Thermo Fisher Scientific), the PC3 cell line in a F-12K medium (Gibco, Thermo Fisher Scientific), and the HaCaT cell line in a high-glucose DMEM (Gibco, Thermo Fisher Scientific). Each medium was supplemented with 10% fetal bovine serum (Gibco, Thermo Fisher Scientific) and antibiotics (penicillin and streptomycin, Gibco, Thermo Fisher Scientific). Cells were seeded at a density of 4000 per well into 96-well plates and incubated at 37 °C in a 5% CO2 atmosphere. The cells were treated with studied compounds in a concentration range of 0.1–100 μg/mL or with a vehicle (1% DMSO) as a control and subsequently incubated for 48 h. Thereafter, the MTT salt solution (3-(4,5-dimethylthiazol-2-yl)-2,5-diphenyltetrazolium bromide, VWR) was added at a concentration of 4 mg/mL (25 μL per well), and the obtained product (formazan) after 3 h of incubation was dissolved in DMSO. An EnSpire microplate reader (PerkinElmer) was used to measure absorbance at 570 nm (the reference wavelength was 660 nm). The viability of the control cells was taken as 100%. Three independent experiments were conducted in triplicate. Statistical analysis of the results and estimation of IC50 values were performed using GraphPad Prism 7 software.

[2] = test system: human keratinocytes (HaCaT line); experiment: MTT cytotoxicity assay, HaCaT; assay type: cell-based; details: Homo sapiens, HaCaT normal cells, 48 h treatment
Description: as §1

[3] = test system: S. aureus ATCC 43300; experiment: MIC, broth dilution method; assay type: cell-based; details: Staphylococcus aureus, ATCC43300; MHB II, 18 h, 37 °C; read-out: Minimum inhibitory concentration S. aureus ATCC 43300
Description: (§2) MIC was determined with the dilution method in Mueller–Hinton II broth (MHB II) on 96-well polystyrene plates. The reference strains (Polish Academy of Sciences, Wroclaw, Poland) of Gram-positive bacteria (Enterococcus faecium ATCC 29,212, S. aureus ATCC 6538, S. aureus ATCC 43,300, S. aureus ATCC 12,598, S. aureus ATCC 25,923, S. aureus, ATCC 33,591, Staphylococcus epidermidis ATCC 14,990) and Gram-negative bacteria (Acinetobacter baumanii ATCC 23,506, Escherichia coli ATCC 25,922, Klebsiella pneumoniae ATCC 700,603, Pseudomonas aeruginosa ATCC 9027) were suspended in MHB II medium to initial inoculum of 10^5 cfu/mL. The microbes were exposed to graded concentrations of tested compounds (range 0.5–256 mg/L) for 18 h at 37 °C under aerobic conditions. The compounds were dissolved in DMSO and then diluted with PBS. […] MIC was taken as the lowest concentration at which no microbial growth was observed. The experiments were performed in triplicate.

[4] = test system: S. aureus ATCC 33591; experiment: MIC, broth dilution method; assay type: cell-based; details: Staphylococcus aureus, ATCC33591; MHB II, 18 h, 37 °C; read-out: Minimum inhibitory concentration S. aureus ATCC 33591
Description: as §2

[5] = test system: E. faecium ATCC 29212; experiment: MIC, broth dilution method; assay type: cell-based; details: Enterococcus faecium, ATCC29212; MHB II, 18 h, 37 °C; read-out: Minimum inhibitory concentration E. faecium ATCC 29212
Description: as §2

[6] = test system: S. aureus ATCC 12598; experiment: MIC, broth dilution method; assay type: cell-based; details: Staphylococcus aureus, ATCC12598; MHB II, 18 h, 37 °C; read-out: Minimum inhibitory concentration S. aureus ATCC 12598
Description: as §2

[7] = test system: S. aureus ATCC 25923; experiment: MIC, broth dilution method; assay type: cell-based; details: Staphylococcus aureus, ATCC25923; MHB II, 18 h, 37 °C; read-out: Minimum inhibitory concentration S. aureus ATCC 25923
Description: as §2

[8] = test system: S. epidermidis ATCC 14990; experiment: MIC, broth dilution method; assay type: cell-based; details: Staphylococcus epidermidis, ATCC14990; MHB II, 18 h, 37 °C; read-out: Minimum inhibitory concentration S. epidermidis ATCC 14990
Description: as §2

[9] = test system: S. aureus ATCC 6538; experiment: MIC, broth dilution method; assay type: cell-based; details: Staphylococcus aureus, ATCC6538; MHB II, 18 h, 37 °C; read-out: Minimum inhibitory concentration S. aureus ATCC 6538
Description: as §2

[10] = test system: breast cancer cells (MCF-7 line); experiment: MTT cytotoxicity assay, MCF7; assay type: cell-based, human; details: for pIC50: Homo sapiens, MCF7 cells, 48 h treatment, MTT; for SI MCF7 (selectivity index): ratio of IC50 for normal cell line (HaCaT) to IC50 for MCF7, 48 h
Description: as §1

[11] = test system: Staphylococcus aureus strains tested, including methicilin-resistant S. aureus; experiment: Antistaphylococcal activity, summary over the strains tested; assay type: cell-based; details: range over the S. aureus strains tested
Description: as §2

SMILES	pIC50 [1]	SI PC3 (selectivity index) [1]	pIC50 [2]	MIC [3] [µg/mL]	MIC [4] [µg/mL]	MIC [5] [µg/mL]	MIC [6] [µg/mL]	MIC [7] [µg/mL]	MIC [8] [µg/mL]	MIC [9] [µg/mL]	pIC50 [10]	SI MCF7 (selectivity index) [10]	concentrations at which antistaphylococcal activity was achieved [11] [mg/L]
C[C@@H]1CC[C@@]2(OC1)O[C@H]1C[C@H]3[C@@H]4CC=C5C[C@@H](OC6CC[C@H](O)CO6)CC[C@]5(C)[C@H]4CC[C@]3(C)[C@H]1[C@@H]2C (stereo partly drawn) [17β]	4.63	1.46	4.47	> 256	> 256	> 256	> 256	> 256	> 256	256 (≈ 497 µM)	4.58	1.29	–
C[C@@H]1CC[C@@]2(OC1)O[C@H]1C[C@H]3[C@@H]4CC=C5C[C@@H](O[C@H]6CC[C@@H](O)[C@H](C)O6)CC[C@]5(C)[C@H]4CC[C@]3(C)[C@H]1[C@@H]2C [15α, Diosgenyl 2,3,6-Trideoxy-α-L-erythro-hexopyranoside]	4.58	–	4.25	> 256	> 256	> 256	> 256	256 (≈ 484 µM)	> 256	256 (≈ 484 µM)	4.06	–	–
C[C@@H]1CC[C@@]2(OC1)O[C@H]1C[C@H]3[C@@H]4CC=C5C[C@@H](O[C@@H]6CC[C@H](O)CO6)CC[C@]5(C)[C@H]4CC[C@]3(C)[C@H]1[C@@H]2C [17α]	4.14	0.66	4.32	128 (≈ 249 µM)	256 (≈ 497 µM)	> 256	256 (≈ 497 µM)	256 (≈ 497 µM)	> 256	128 (≈ 249 µM)	4.17	0.71	128 to 256
C[C@@H]1CC[C@@]2(OC1)O[C@H]1C[C@H]3[C@@H]4CC=C5C[C@@H](O[C@@H]6CC[C@@H](O)[C@@H](CO)O6)CC[C@]5(C)[C@H]4CC[C@]3(C)[C@H]1[C@@H]2C [14α, Diosgenyl 2,3-Dideoxy-α-D-threo-hexopyranoside]	4.39	1.29	4.27	128 (≈ 235 µM)	256 (≈ 470 µM)	> 256	256 (≈ 470 µM)	64 (≈ 117 µM)	> 256	64 (≈ 117 µM)	4.60	2.13	64 to 256
